Source: BindingDB's records for doi:10.1128/aac.00917-07 (Umdnj-New Jersey Medical School, 2007)

Target: 1,3-beta-glucan synthase (Aspergillus fumigatus, UniProt P87204, S678P)
Assay: Inhibition of 1,3-beta-D-glucan synthase EMFR-S678P mutant from Aspergillus fumigatus assessed as incorporation of [3H]glucose

Sequence of 1,3-beta-glucan synthase (P87204 entry or part of it S678P): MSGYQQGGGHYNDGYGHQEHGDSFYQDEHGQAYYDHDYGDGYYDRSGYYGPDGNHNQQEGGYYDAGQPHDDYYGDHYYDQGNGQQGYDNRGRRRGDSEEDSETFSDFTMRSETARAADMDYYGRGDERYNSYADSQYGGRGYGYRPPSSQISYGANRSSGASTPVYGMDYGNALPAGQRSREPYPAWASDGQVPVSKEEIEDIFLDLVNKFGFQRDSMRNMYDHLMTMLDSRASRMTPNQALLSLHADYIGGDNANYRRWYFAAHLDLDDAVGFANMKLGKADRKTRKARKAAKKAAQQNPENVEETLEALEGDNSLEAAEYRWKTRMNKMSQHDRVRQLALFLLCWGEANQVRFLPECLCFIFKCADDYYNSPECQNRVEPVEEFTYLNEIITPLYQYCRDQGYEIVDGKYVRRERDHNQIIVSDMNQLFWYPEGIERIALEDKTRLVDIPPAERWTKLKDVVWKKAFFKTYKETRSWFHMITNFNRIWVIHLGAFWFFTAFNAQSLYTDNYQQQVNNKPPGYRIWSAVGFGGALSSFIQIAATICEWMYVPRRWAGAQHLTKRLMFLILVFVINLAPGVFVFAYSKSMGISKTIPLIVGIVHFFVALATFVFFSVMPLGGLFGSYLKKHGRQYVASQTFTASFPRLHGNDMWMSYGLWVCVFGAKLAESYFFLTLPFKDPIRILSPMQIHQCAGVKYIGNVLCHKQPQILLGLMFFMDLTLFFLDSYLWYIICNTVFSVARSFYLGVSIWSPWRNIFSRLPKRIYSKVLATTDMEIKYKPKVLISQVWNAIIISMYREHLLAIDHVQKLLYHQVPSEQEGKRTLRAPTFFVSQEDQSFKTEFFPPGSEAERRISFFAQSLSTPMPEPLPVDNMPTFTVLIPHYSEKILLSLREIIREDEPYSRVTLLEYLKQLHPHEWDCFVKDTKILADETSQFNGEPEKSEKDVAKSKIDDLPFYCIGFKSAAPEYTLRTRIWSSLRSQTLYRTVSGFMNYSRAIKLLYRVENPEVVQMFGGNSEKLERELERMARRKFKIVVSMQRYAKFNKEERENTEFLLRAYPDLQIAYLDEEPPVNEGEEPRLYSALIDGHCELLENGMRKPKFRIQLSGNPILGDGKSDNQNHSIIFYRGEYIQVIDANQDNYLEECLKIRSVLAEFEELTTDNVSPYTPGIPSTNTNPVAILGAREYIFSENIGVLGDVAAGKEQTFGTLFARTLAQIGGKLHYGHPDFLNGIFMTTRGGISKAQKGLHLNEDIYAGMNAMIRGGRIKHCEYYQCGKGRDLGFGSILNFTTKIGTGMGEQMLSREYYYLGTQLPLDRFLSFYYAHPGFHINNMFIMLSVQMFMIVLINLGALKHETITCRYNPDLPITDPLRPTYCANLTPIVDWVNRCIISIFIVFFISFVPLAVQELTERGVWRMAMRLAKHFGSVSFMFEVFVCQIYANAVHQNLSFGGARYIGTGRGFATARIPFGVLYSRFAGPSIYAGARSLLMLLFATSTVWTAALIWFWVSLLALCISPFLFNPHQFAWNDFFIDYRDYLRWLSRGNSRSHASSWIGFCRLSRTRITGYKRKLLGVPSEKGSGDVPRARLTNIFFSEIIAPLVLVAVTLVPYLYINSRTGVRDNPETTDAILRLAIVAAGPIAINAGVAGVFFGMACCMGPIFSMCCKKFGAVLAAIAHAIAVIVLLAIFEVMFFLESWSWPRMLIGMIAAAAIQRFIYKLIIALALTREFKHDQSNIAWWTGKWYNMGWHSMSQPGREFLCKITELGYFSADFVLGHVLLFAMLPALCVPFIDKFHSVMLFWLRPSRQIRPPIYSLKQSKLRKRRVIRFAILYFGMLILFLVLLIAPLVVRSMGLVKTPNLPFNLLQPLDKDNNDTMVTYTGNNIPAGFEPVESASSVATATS

`CCC(C)CC(C)CCCCCCCCC(=O)N[C@H]1C[C@@H](O)[C@@H](NCCN)NC(=O)[C@@H]2[C@@H](O)CCN2C(=O)[C@H]([C@H](O)CCN)NC(=O)[C@H]([C@H](O)[C@@H](O)c2ccc(O)cc2)NC(=O)[C@@H]2C[C@@H](O)CN2C(=O)[C@H]([C@@H](C)O)NC1=O` (stereo partly specified) [CHEBI:474180] was tested, and the IC50 was 110 nM.
